Results reported in publication PMC11002876, “KcsA-Kv1.x chimeras with complete ligand-binding sites provide improved predictivity for screening selective Kv1.x blockers” (The Journal of Biological Chemistry, 2024).
Changes are numbered by the printed parent chain. “Also recorded” adds a separate entry of the source.

Tests used:
[1] = target: T1, KcsA-Kv1.3 T-only chimera (Streptomyces lividans, UniProt P0A334, A54D/A57S/G53D/G56T/I60S/L59F/Q58G/R52A/R64D/T61S/Y62I); experiment: Phage-binding competition assay, KcsA-Kv1.3 T-only; set-up: species or system human Kv1.3 turret in Streptomyces lividans KcsA
T1 construct: made in house; host or cells: E. coli XL1-Blue (pQE30)
T1 sequence (P0A334 1-160 R52A/G53D/A54D/G56T/A57S/Q58G/L59F/I60S/T61S/Y62I/R64D): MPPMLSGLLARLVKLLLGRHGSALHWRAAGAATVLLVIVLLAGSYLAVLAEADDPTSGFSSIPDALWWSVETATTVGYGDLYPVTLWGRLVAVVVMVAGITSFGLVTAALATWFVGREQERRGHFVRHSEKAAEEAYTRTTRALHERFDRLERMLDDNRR
Experimental: (§1) Phage stock solutions were diluted to working concentration with phage resuspension buffer supplemented with 2 mM DDM. For protein immobilization, the following amounts were used in a final volume of 50 μl/well: wt KcsA, 0.1 μg; KcsA-Kv1.1 T-only, 0.005 μg; KcsA-Kv1.1 T+F, 0.02 μg; KcsA-Kv1.2 T-only, 0.01 μg; KcsA-Kv1.2 T+F, 0.1 μg; KcsA-Kv1.3 T-only, 0.01 μg; and KcsA-Kv1.3 T+F, 0.1 μg. Protein samples were diluted in 50 μl of storage buffer (20 mM Tris pH8.0, 300 mM KCl, 2 mM DDM) and were added to the designated wells of a Pierce Clear, 96-Well Nickel Coated Plate (15442, Thermo Fisher Scientific), then incubated for 1 h at room temperature on a horizontal shaker at 130 rpm. The plate was blocked for 1 h at room temperature with 180 μl/well TBS-BSA supplemented with 1 mM DDM. Following blocking, the wells were washed 4× with washing buffer (300 μl TBS-Tween, 0.1% v/v) using a Wellwash Versa microplate washer (Thermo Fisher Scientific); then 50 μl phage solution (in TBS-BSA-Tween, 0.1% v/v, 2 mM DDM) at determined phage concentration was added to the wells and incubated for 1 h at room temperature on a horizontal shaker. The plate was washed 4× with washing buffer, then 50 μl anti-M13 IgG HRP (MA5-36125, Invitrogen) diluted to 1:2500 in TBS-Tween (0.1% v/v) was added to the wells and incubated for 1 h at room temperature. The plate was washed again 4× with 300 μl/well washing buffer. Finally, 50 μl/well 1-Step Ultra TMB-ELISA solution (34028, Thermo Fisher Scientific) was added to the wells, and the developing signal was stopped with 50 μl 1M HCl after 5 to 10 min. The light absorbance signal was read at 450 nm with Byonoy absorbance 96 plate reader (Byonoy GmbH).
(§2) For protein immobilization, the following amounts were used in a final volume of 50 μl/well: KcsA-Kv1.1 T-only, 0.005 μg; KcsA-Kv1.1 T+F, 0.01 μg; KcsA-Kv1.2 T-only, 0.025 μg; KcsA-Kv1.2 T+F, 0.0125 μg; KcsA-Kv1.3 T-only, 0.01 μg; and KcsA-Kv1.3 T+F, 0.1 μg. Protein samples were diluted in storage buffer. Binding of given concentrations of relevant ligand-displaying phages quantified by light absorbance ([…]) were investigated in a similar manner as in phage ELISA-binding assay, while different concentrations of competing toxin test substances were applied simultaneously. The results were converted to percent inhibitions (percent displacement) of the indicator phage binding, and relative affinities of the tested toxins were assessed by plotting percent displacements against log concentrations and determining half maximal inhibitory concentrations (IC50) by sigmoidal curve fitting using “Sigmoidal dose-response (variable slope) with least squares method” algorithm in GraphPad Prism 8 using the following equation: Y=Bottom+Top−Bottom/1+10^(LogEC50−×)⋅HillSlope

[2] = target: T2, KcsA-Kv1.2 T-only chimera (Streptomyces lividans, UniProt P0A334, A54E/A57S/G53D/G56E/I60P/L59F/P55R/R52A/R64D/T61S/Y62I); experiment: Phage-binding competition assay, KcsA-Kv1.2 T-only; set-up: species or system human Kv1.2 turret in Streptomyces lividans KcsA; settings: HgTx1-phage competition, KcsA-Kv1.2 T-only; value given in figure, sigmoidal fit to means of three replicates; read-out: IC50 (Fig. 7E)
T2 sequence (P0A334 1-160 R52A/G53D/A54E/P55R/G56E/A57S/L59F/I60P/T61S/Y62I/R64D): T1 sequence (P0A334 1-160 R52A/G53D/A54D/G56T/A57S/Q58G/L59F/I60S/T61S/Y62I/R64D) with D54E, P55R, T56E, G58Q, S60P
Experimental: as §1, §2

[3] = target: T3, KcsA-Kv1.2 T-only chimera (Streptomyces lividans, UniProt P0A334, R52A/G53D/A54E/P55R/G56E/A57S/L59F/I60P/T61S/Y62I/R64D); experiment: Phage-binding competition assay, KcsA-Kv1.2 T-only; set-up: species or system human Kv1.2 turret in Streptomyces lividans KcsA
T3 sequence (P0A334 1-160 R52A/G53D/A54E/P55R/G56E/A57S/L59F/I60P/T61S/Y62I/R64D): T1 sequence (P0A334 1-160 R52A/G53D/A54D/G56T/A57S/Q58G/L59F/I60S/T61S/Y62I/R64D) with D54E, P55R, T56E, G58Q, S60P
Experimental: as §1, §2

human Kv1.3 = human Kv1.3 channel blocking, patch-clamp; read-out: IC50, Kv1.x blocking (Kv1.3); cited from earlier work
From the text: Table 1 Summary of chimeric protein-binding prediction studies in the light of IC50 values | column: Kv1.x blocking / IC50 (nM) || Peptide toxins of venomous animal origin as lead molecules for optimization may offer an advantage over small molecules in terms of potentially greater affinity and specificity. These miniproteins are usually up to 50 amino acids in length and can adopt distinct conformation with secondary structural elements stabilized by several disulfide bonds ([9], [10], [11]). Due to their considerable surface area, miniproteins can form stable complexes with target proteins through extensive interaction surfaces ([12], [13]). The miniprotein Kv1.3 blocker drug candidate, Dalazatide—a synthetic derivative ... || Our initial investigation focused on assessing the relative binding affinities of various channel-blocking toxins to the T-only version of the KcsA-Kv1.3 chimera. Subsequently, we evaluated whether these affinities aligned with the toxins' blocking efficacy on native human Kv1.3 channels, as determined by patch-clamp assay.

human Kv1.1 = human Kv1.1 channel blocking, patch-clamp; read-out: IC50, Kv1.x blocking (Kv1.1); cited from earlier work

For `CC[C@H](C)[C@H](NC(=O)[C@H](CCC(=O)O)NC(=O)[C@@H](NC(=O)CN)C(C)C)C(=O)N[C@@H](CC(N)=O)C(=O)N[C@H](C(=O)N[C@@H](CCCCN)C(=O)N[C@H]1CSSC[C@@H]2NC(=O)[C@H](CCCCN)NC(=O)CNC(=O)[C@H](Cc3ccccc3)NC(=O)[C@H](CCCNC(=N)N)NC(=O)[C@H](CCSC)NC(=O)CNC(=O)[C@H](C)NC(=O)[C@H](CC(=O)O)NC(=O)[C@H](CCCCN)NC(=O)[C@@H]3CSSC[C@@H](C(=O)N[C@H](C(=O)N4CCC[C@H]4C(=O)N[C@@H](CCCCN)C(=O)O)[C@@H](C)O)NC(=O)[C@H](Cc4c[nH]cn4)NC(=O)[C@H](CSSC[C@H](NC(=O)[C@H](CCC(N)=O)NC(=O)[C@@H]4CCCN4C(=O)[C@H](CO)NC(=O)CNC(=O)[C@H](CO)NC1=O)C(=O)N[C@@H](CC(C)C)C(=O)N[C@@H](CCCCN)C(=O)N1CCC[C@H]1C(=O)N3)NC(=O)[C@H](CCCCN)NC(=O)[C@H](CCCNC(=N)N)NC(=O)[C@H](CC(N)=O)NC(=O)[C@H](CCSC)NC2=O)C(C)C` [KTX1, Kaliotoxin-1], the IC50 ([1]; HgTx1-phage competition, T-only KcsA-Kv1.3, value given in figure, sigmoidal fit to means of three replicates, read-out: IC50 (Fig. 6E)) was 0.416 nM, the “Rank, T-only chimera (Kv1.3)” value ([1]; rank by competition IC50 among Vm24, HgTx1, KTX1) was 1 and the IC50 [2] was 0.184 nM. The “binding to KcsA-Kv1.2 T-only, in words” value ([3]; HgTx1-phage competition, Fig. 7E (ligand-binding pattern)) was “inconsistent with their published channel blocking potencies; also recorded: ShK > KTX1 > MTX”, the “Rank, T-only chimera (Kv1.2)” value ([3]; rank by competition IC50 among MTX, ShK, KTX1) was 2 and the IC50 (human Kv1.3) was 0.65 nM. For the same compound, the IC50 (human Kv1.1) was 1.1 to 41 nM.
